In PMC7076525, “Pharmacokinetics and Intestinal Metabolism of Compound K in Rats and Mice” (Pharmaceutics, 2020):

Assays:
[1] = Pharmacokinetic study after intravenous compound K (2 mg/kg) in ICR mice: plasma, feces, urine
[2] = Pharmacokinetic study after intravenous compound K (2 mg/kg) in SD rats: plasma, feces, urine
[3] = parameters: method as in PMID 16302287, PMID 32148404, PMID 30013338, PMID 26680316; details: cited from earlier work
[4] = Pharmacokinetics, biliary excretion and metabolism of compound K in bile cannulated and non-bile cannulated rats; type: in vivo, SD rats; details: after compound K IV 2 mg/kg
Method: SD rats were randomly divided into two groups: the non-bile cannulated control group and the bile cannulated group. For the bile cannulated rats, the femoral artery, femoral vein, and bile duct were cannulated with polyethylene tubes (PE-50 and PE-10; Jungdo, Seoul, Korea) under light anesthesia with isoflurane. For the control group, the femoral artery and femoral vein were cannulated with PE-50. Compound K was injected intravenously via the femoral vein at 2 mg/kg. Blood samples (approximately 200 µL) were collected from the femoral artery at 0, 0.25, 0.5, 1, 2, 4, and 8 h after the compound K injection. After each blood sampling, normal saline was injected into the femoral vein to compensate for blood loss. Bile samples were collected every 2 h for a total of 12 h. The blood samples were centrifuged at 16,000× g for 10 min, and 50 μL aliquots of plasma and 50 μL aliquots of bile were stored at −80 °C until the compound K analysis. In the non-bile cannulated rats, the complete contents of the entire gastrointestinal tract were collected using a […] filled with 30 mL pre-warmed saline. The contents were homogenized with tissue homogenizer, and 50 μL aliquots of intestinal fecal homogenates were stored at −80 °C until the analysis. The 50 μL samples of plasma, urine, 10% fecal homogenates, bile, and intestinal fecal homogenates were each mixed with 60 μL of IS (20 ng/mL 13C-caffeine in water) and 600 μL of methyl tert-butyl ether (MTBE). The mixtures were vortexed vigorously for 10 min and centrifuged at 16,000× g for 5 min. After centrifugation, the samples were frozen at −80 °C for 2 h. […] The residue was reconfigured with 200 μL of 80% methanol consisting of 0.1% formic acid, and a 10 μL aliquot was injected into the liquid chromatography–tandem mass spectrometry (LC–MS/MS) system. Compound K and PPD concentrations were analyzed using a modified LC-MS/MS method of Jin et al. with an Agilent 6430 triple quadrupole LC-MS/MS system (Agilent, Wilmington, DE, USA). […] The mobile phase consisted of 0.1% formic acid in water (8%) and 0.1% formic acid in methanol (92%) at a flow rate of 0.15 mL/min. Pharmacokinetic parameters were estimated using non-compartmental methods (WinNonlin version 2.0, Pharsight Co., Certara, NJ, USA).

[5] = system: Caco-2 cells; parameters: method as in PMID 16302287, PMID 32148404, PMID 30013338, PMID 26680316; details: cited from earlier work
[6] = parameters: method as in PMID 28955238; details: humans, single oral 200 mg compound K tablet, cited from earlier work
[7] = mice, after compound K IV 2 mg/kg
[8] = rats, after compound K IV 2 mg/kg

With `CC(C)=CCCC(C)(O)C1CCC2(C)C1C(O)CC1C3(C)CCC(O)C(C)(C)C3CCC12C` [PPD, 20(S)-protopanaxadiol] the concentration at 48 h ([1]; ICR, mouse, plasma, iv, 2 mg/kg) was under 5 ng/mL, the “detection in plasma and fecal samples” value [1, 7] was “detected” and the “detection in urine samples” value [1, 7] was “not detected”. For the same molecule, the “recovery of PPD relative to that of compound K in feces” value ([1]; mouse feces, after compound K IV 2 mg/kg) was 1.2 fold, the “metabolic ratio (PPD to compound K ratio) in plasma” value ([1]; mouse plasma, after compound K IV 2 mg/kg) was 0.02–0.08 and the “Recovery48 h Feces” value ([1]; mouse, after compound K IV 2 mg/kg, over 48 h (Table 4)) was 34.4 ± 5.8 % of Dose. For the same molecule, the concentration at 48 h ([2]; SD, rat, plasma, iv, 2 mg/kg) was under 5 ng/mL, the “recovery of PPD relative to that of compound K in feces” value ([2]; rat feces, after compound K IV 2 mg/kg) was 3.4 fold and the “metabolic ratio (PPD to compound K ratio) in plasma” value ([2]; rat plasma, after compound K IV 2 mg/kg) was 0.2–1.6. For the same molecule, the “Recovery48 h Feces” value ([2]; rat, after compound K IV 2 mg/kg, over 48 h (Table 4)) was 46.6 ± 4.9 % of Dose, the “detection in plasma and fecal samples” value [2, 8] was “detected” and the “detection in urine samples” value [2, 8] was “not detected”. For the same molecule, the LogP value [3] was 5.53, the “presence in bile samples collected over 12 h” value ([4]; bile-cannulated rats) was “without PPD” and the “detection in plasma samples” value ([4]; bile-cannulated rats, 2 mg/kg) was “could not be detected”. The “detection in plasma samples at 8 h” value ([4]; control rats (non-bile cannulated), not present in 2 h sample) was “detected”, the “amount in intestinal fecal samples, 12 h compared to 2 h” value ([4]; rats without bile cannulation) was “greater in the 12 h samples compared to the 2 h samples” and the permeability [5] was 1.15 ×10⁻⁶ cm/s. The Cmax ([6]; fasting) was 5.7 ng/mL, the Tmax ([6]; fasting) was 24.5 h and the “AUC ratio of PPD to compound K” value [6] was 0.04.
